Data from patent publication US20220408724A1, “METHOD FOR CONTROLLING METABOLISM OF BRANCHED FATTY ACID” (KAO CORPORATION, priority 2019, published 2022).
“And” between values parts separate entries of the source, which are not always exact repeats. Equal values may be shown once.

Assays:
Rhodotorula mucilaginosa [1] = assay: Suppression of metabolism of 14-methylhexadecanoic acid on cotton fabric; assay type: cell-based; conditions: agent 250 μg/fabric g
Protocol: A methanol solution in which 14-methylhexadecanoic acid (SIGMA-ALDRICH) was dissolved was added dropwise to 3 cm×3 cm pieces of sterilized plain-weave cotton fabric to make it adhered to the fabric. The adhesion amount of 14-methylhexadecanoic acid was set to 10 μg per piece of the plain-weave cotton fabric (100 μg/fabric g).
Further, a methanol solution in which each metabolism controlling agent was dissolved was prepared and added dropwise to the fabric to which 14-methylhexadecanoic acid adhered, and it was thereafter dried for an hour. This fabric was placed in a sterilized screw tube bottle No. 3 (Maruemu Corporation) and 100 μl of the bacterial suspension was inoculated thereto, and culture was carried out under 37° C.; conditions for 21 hours.
3 ml of methanol was added to the screw tube bottle after culture, and extraction was carried out under ultrasonic irradiation for 30 minutes (20° C.). The extraction liquid was mixed with a (trimethylsilyl)diazomethane hexane solution (FUJIFILM Wako Pure Chemical Corporation) at 9:1 (volume ratio) and left overnight under room temperature and dark place conditions. After that, 14-methylhexadecanoic acid remaining on the fabric was quantified by GC. The quantification conditions for GC are as follows. • GC: Agilent 7890A • GC column: Agilent DB-1 30 m×250 μm×0.25 μm • Temperature rise condition: 50° C. (held for 3 minutes)-(10° C./min)-300° C. (held for 5 minutes) • Sample injection volume: 1 μl • Split ratio: 1:12 • Detector: FID
The residual amount of 14-methylhexadecanoic acid after culture on the fabric to which the metabolism controlling agent was added was quantified, and the ratio of the residual amount to that of 14-methylhexadecanoic acid in the case of adding no metabolism controlling agent (control) was calculated as a metabolism suppression rate (%). The higher a numerical value thereof is, the more the metabolism is suppressed. Note that the metabolism suppression rate was determined by the following formula:
Metabolism suppression rate(%)=[1−(100−A)/(100−B)]×100 • A: residual amount of 14-methylhexadecanoic acid of example or comparative example (μg/fabric g) • B: residual amount of 14-methylhexadecanoic acid of control (μg/fabric g)
The metabolism of 14-methylhexadecanoic acid by yeast of the genus Rhodotorula was tested in the same manner as in example 1.
In this example, Rhodotorula mucilaginosa (strain isolated from clothing) was used as a microorganism.
Further, in this example, the bacteria were precultured under conditions of a PDA agar medium (Difco), 30° C.; and 48 hours.
Further, in this example, a bacterial suspension of 10^7 (CFU/ml) prepared by using a PDB liquid medium (Difco) diluted to 1/10 with ion exchange water was used as a bacterial suspension.

Rhodotorula mucilaginosa [2] = assay: Suppression of metabolite 4-methylhexanoic acid from 14-methylhexadecanoic acid; assay type: cell-based
Protocol: The extraction liquid was mixed with (a 1000 ppm methanol solution of) an ADAM reagent of Funakoshi Co., Ltd. at 1:1 (volume ratio) and left overnight under room temperature and dark place conditions. […] The quantification conditions are as follows. […] The higher a numerical value thereof is, the more the metabolism is suppressed. Note that the metabolite suppression rate was determined by the following formula: […] In this example, Rhodotorula mucilaginosa (strain isolated from clothing) was used as a microorganism. Further, in this example, the bacteria were precultured under conditions of a PDA agar medium (Difco), 30° C.; and 48 hours. Further, in this example, a bacterial suspension of 10^7 (CFU/ml) prepared by using a PDB liquid medium (Difco) diluted to 1/10 with ion exchange water was used as a bacterial suspension.

CCCCCCCCCCCCO [Example C12OH, 1-dodecanol]
Metabolism suppression rate (%) (Rhodotorula mucilaginosa [1]): 68% | Metabolite suppression rate (%) (Rhodotorula mucilaginosa [2]; agent 250 μg/fabric g): 62% and 72.50% | Metabolite suppression rate (%) (Rhodotorula mucilaginosa [2]; agent 500 μg/fabric g): 65.80% | Metabolite suppression rate (%) (Rhodotorula mucilaginosa [2]; agent 1000 μg/fabric g): 82.20%
